Values of other authors, collected in patent US9980903B2, “Gastric retentive oral dosage form with restricted drug release in the lower gastrointestinal tract” (Depomed, Inc., priority 2001, dated 2018).

Settings: presently available immediate release dosage form

time at which maximum serum concentration is attained after dosing: 1 to 2 h
SMILES: O=C(O)c1cn(C2CC2)c2cc(N3CCNCC3)c(F)cc2c1=O [Ciprofloxacin, 1-cyclopropyl-6-fluoro-1,4-dihydro-4-oxo-7-(1-piperazinyl)-3-quinolinecarboxylic acid]
